Laboratory results as given in PubChem BioAssay (NCI).
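Test compounds were applied to cells in 96-well plates for 48 hours at 5 doses. Abbreviation: GI50, concentration required for 50% inhibition of growth. TGI: total growth inhibition.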

How the values were obtained:
Test in all cases: growth of human tumour cells (NCI), 48 h
[1] = tested on: 786-0 renal
[2] = tested on: A498 renal
[3] = tested on: A549 NSCLC
[4] = tested on: ACHN renal
[5] = tested on: BT-549 breast
[6] = tested on: CAKI-1 renal
[7] = tested on: COLO 205 colon
[8] = tested on: DU-145 prostate
[9] = tested on: EKVX NSCLC
[10] = tested on: HCC-2998 colon
[11] = tested on: HCT-116 colon
[12] = tested on: HCT-15 colon
[13] = tested on: HL-60(TB) leukemia
[14] = tested on: HOP-62 NSCLC
[15] = tested on: HOP-92 NSCLC
[16] = tested on: HS 578T breast
[17] = tested on: IGROV1 ovarian
[18] = tested on: KM12 colon
[19] = tested on: LOX IMVI melanoma
[20] = tested on: M14 melanoma
[21] = tested on: MALME-3M melanoma
[22] = tested on: MCF7 breast
[23] = tested on: MDA-MB-231 breast
[24] = tested on: MDA-MB-435
[25] = tested on: MOLT-4 leukemia
[26] = tested on: NCI-H226 lung
[27] = tested on: NCI-H460 lung
[28] = tested on: NCI-H522 lung
[29] = tested on: NCI/ADR-RES ovarian
[30] = tested on: OVCAR-3 ovarian
[31] = tested on: OVCAR-4 ovarian
[32] = tested on: OVCAR-5 ovarian
[33] = tested on: OVCAR-8 ovarian
[34] = tested on: PC-3 prostate
[35] = tested on: RXF 393 renal
[36] = tested on: SF-295 CNS
[37] = tested on: SF-539 CNS
[38] = tested on: SK-MEL-2 melanoma
[39] = tested on: SK-MEL-28 melanoma
[40] = tested on: SK-MEL-5 melanoma
[41] = tested on: SK-OV-3 ovarian
[42] = tested on: SN12C renal
[43] = tested on: SNB-19 CNS
[44] = tested on: SNB-75 CNS
[45] = tested on: SR leukemia
[46] = tested on: SW-620 colon
[47] = tested on: T-47D breast
[48] = tested on: TK-10 renal
[49] = tested on: U251 CNS
[50] = tested on: UACC-257 melanoma
[51] = tested on: UACC-62 melanoma
[52] = tested on: UO-31 renal

COc1cc2c3c(n(CCCNC4CCCC4)c(=O)c2cc1OC)-c1cc2c(cc1C3=O)OCO2
GI50 [1]: 1.61 µM
TGI [1]: 3.24 µM
GI50 [2]: 15.9 µM
TGI [2]: 29.7 µM
GI50 [3]: 7.46 µM
TGI [3]: 25.8 µM
GI50 [4]: 1.49 µM
TGI [4]: 2.84 µM
GI50 [5]: 13.8 µM
TGI [5]: 27.3 µM
GI50 [6]: 1.24 µM
TGI [6]: 2.5 µM
GI50 [7]: 1.35 µM
TGI [7]: 15.4 µM
GI50 [8]: 1.44 µM
TGI [8]: 2.82 µM
GI50 [9]: 4.64 µM
TGI [9]: 17 µM
GI50 [10]: 3.45 µM
TGI [10]: 15.7 µM
GI50 [11]: 1.2 µM
TGI [11]: 2.67 µM
GI50 [12]: 1.59 µM
TGI [12]: 3.43 µM
GI50 [13]: 1.02 µM
TGI [13]: 2.66 µM
GI50 [14]: 2.38 µM
TGI [14]: 20.9 µM
GI50 [15]: 12.5 µM
TGI [15]: 26.1 µM
GI50 [16]: 19.9 µM
TGI [16]: 81 µM
GI50 [17]: 1.4 µM
TGI [17]: 3.65 µM
GI50 [18]: 11 µM
TGI [18]: 25.2 µM
GI50 [19]: 1.03 µM
TGI [19]: 2.33 µM
GI50 [20]: 1.48 µM
TGI [20]: 2.9 µM
GI50 [21]: 1.69 µM
TGI [21]: 3.27 µM
GI50 [22]: 0.673 µM
TGI [22]: 2.32 µM
GI50 [23]: 1.57 µM
TGI [23]: 3.29 µM
GI50 [24]: 1.65 µM
TGI [24]: 3.19 µM
GI50 [25]: 0.0486 µM
TGI [25]: 3.37 µM
GI50 [26]: 17.8 µM
TGI [26]: 42 µM
GI50 [27]: 0.446 µM
TGI [27]: 1.98 µM
GI50 [28]: 5.26 µM
TGI [28]: 32 µM
GI50 [29]: 2.25 µM
TGI [29]: 15.7 µM
GI50 [30]: 1.64 µM
TGI [30]: 3.31 µM
GI50 [31]: 1.91 µM
TGI [31]: 3.99 µM
GI50 [32]: 2.46 µM
TGI [32]: 5.56 µM
GI50 [33]: 1.45 µM
TGI [33]: 2.98 µM
GI50 [34]: 10.3 µM
TGI [34]: 31.9 µM
GI50 [35]: 3.83 µM
TGI [35]: 15.5 µM
GI50 [36]: 0.628 µM
TGI [36]: 21.7 µM
GI50 [37]: 1.51 µM
TGI [37]: 2.98 µM
GI50 [38]: 19 µM
TGI [38]: 35.6 µM
GI50 [39]: 15.8 µM
TGI [39]: 30.6 µM
GI50 [40]: 17.3 µM
TGI [40]: 31.2 µM
GI50 [41]: 12.7 µM
TGI [41]: 26.4 µM
GI50 [42]: 1.8 µM
TGI [42]: 4.3 µM
GI50 [43]: 2.96 µM
TGI [43]: 25.5 µM
GI50 [44]: 13.8 µM
TGI [44]: 27.3 µM
GI50 [45]: 0.133 µM
TGI [45]: 0.583 µM
GI50 [46]: 1.09 µM
TGI [46]: 2.44 µM
GI50 [47]: 16.6 µM
TGI [47]: 36.2 µM
GI50 [48]: 22 µM
TGI [48]: 36.8 µM
GI50 [49]: 1.27 µM
TGI [49]: 2.57 µM
GI50 [50]: 15.8 µM
TGI [50]: 30.3 µM
GI50 [51]: 13 µM
TGI [51]: 30.2 µM
GI50 [52]: 1.66 µM
TGI [52]: 4.21 µM
